Assay results published in US10265307B2, “Thiazolecarboxamides and pyridinecarboxamide compounds useful as Pim kinase inhibitors” (Incyte Corporation, priority 2013, dated 2019).

Key:
Format in all cases: biochemical
[1] = biological target: Pim-3 (Homo sapiens (Human), UniProt Q86V86); assay: Pim-3 kinase assay; conditions: 1 mM ATP; read-out: Pim3 IC50
In short: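 AlphaScreen-type assay: […] Pim-3 phosphorylates 0.05 μM biotin-BAD peptide with 1 mM ATP, 1 h at 25 °C, pH 7.5 Tris buffer with MgCl2 and DTT. EDTA stop with phospho-BAD (Ser112) antibody and donor/acceptor beads, 1 h dark incubation before reading.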

[2] = biological target: Pim-1 (Homo sapiens (Human), UniProt P11309); assay: Pim-1 kinase assay; conditions: 1 mM ATP; read-out: Pim1 IC50
Pim-1, sequence (P11309 whole entry): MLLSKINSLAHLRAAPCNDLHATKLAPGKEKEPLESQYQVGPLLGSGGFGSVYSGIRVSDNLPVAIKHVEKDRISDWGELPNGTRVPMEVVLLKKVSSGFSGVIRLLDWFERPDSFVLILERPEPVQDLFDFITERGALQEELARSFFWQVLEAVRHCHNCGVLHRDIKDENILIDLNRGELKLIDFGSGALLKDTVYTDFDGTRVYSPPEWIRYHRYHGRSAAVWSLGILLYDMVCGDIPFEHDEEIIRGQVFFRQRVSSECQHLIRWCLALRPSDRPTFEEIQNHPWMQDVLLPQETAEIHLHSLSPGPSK
Experimental: Supplementation of the STOP buffer with beads and stopping the reactions were done under reduced light. Prior to the stopping reactions STOP buffer with beads was pre-incubated for 1 h in the dark at room temperature. After stopping the reactions, plates were incubated for 1 h in the dark at room temperature before reading on a PHERAstar FS plate reader (BMG Labtech) under reduced light.

[3] = biological target: Pim-2 (Homo sapiens (Human), UniProt Q9P1W9); assay: Pim-2 kinase assay; conditions: 1 mM ATP; read-out: Pim2 IC50
Pim-2, sequence (Q9P1W9 whole entry): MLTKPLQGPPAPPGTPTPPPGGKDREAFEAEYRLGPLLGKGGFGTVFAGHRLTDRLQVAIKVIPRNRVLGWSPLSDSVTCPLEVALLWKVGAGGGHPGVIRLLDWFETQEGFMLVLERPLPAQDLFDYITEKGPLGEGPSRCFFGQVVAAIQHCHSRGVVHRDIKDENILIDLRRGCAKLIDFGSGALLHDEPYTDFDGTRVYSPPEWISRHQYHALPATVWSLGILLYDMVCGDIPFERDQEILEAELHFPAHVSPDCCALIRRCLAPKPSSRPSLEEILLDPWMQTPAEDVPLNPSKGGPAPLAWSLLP

## Nc1cc(F)c(-c2c(F)cccc2F)nc1C(=O)Nc1cnc2c(c1N1CCC[C@H](N)C1)CCO2 [Example 12, 3-Amino-N-{4-[(3S)-3-aminopiperidin-1-yl]-2,3-dihydrofuro[2,3-b]pyridin-5-yl}-6-(2,6-difluorophenyl)-5-fluoropyridine-2-carboxamide]
[1]
  IC50: ≤ 100 nM
[2]
  IC50: ≤ 100 nM
[3]
  IC50: ≤ 100 nM

## N[C@H]1CCCN(c2c(NC(=O)c3csc(-c4c(F)cccc4F)n3)cnc3c2CCC3)C1 [Example 13, N-{4-[(3S)-3-Aminopiperidin-1-yl]-6,7-dihydro-5H-cyclopenta[b]pyridin-3-yl}-2-(2,6-difluorophenyl)-1,3-thiazole-4-carboxamide]
[1]
  IC50: ≤ 100 nM
[2]
  IC50: ≤ 100 nM
[3]
  IC50: > 2000 nM

## Nc1sc(-c2c(F)cccc2F)nc1C(=O)Nc1cnc2c(c1N1CCC[C@H](N)C1)CCC2 [Example 14, 5-Amino-N-{4-[(3S)-3-aminopiperidin-1-yl]-6,7-dihydro-5H-cyclopenta[b]pyridin-3-yl}-2-(2,6-difluorophenyl)-1,3-thiazole-4-carboxamide]
[1]
  IC50: ≤ 100 nM
[2]
  IC50: ≤ 100 nM
[3]
  IC50: ≤ 100 nM

## COC1CCc2c1ncc(NC(=O)c1nc(-c3c(F)cccc3F)sc1N)c2N1CCC[C@H](N)C1 (stereo partly drawn) [Example 17, 5-Amino-N-{4-[(3S)-3-aminopiperidin-1-yl]-7-methoxy-6,7-dihydro-5H-cyclopenta[b]pyridin-3-yl}-2-(2,6-difluorophenyl)-1,3-thiazole-4-carboxamide]
[1]
  IC50: ≤ 100 nM
[2]
  IC50: ≤ 100 nM
[3]
  IC50: 100 to 1000 nM

## Nc1sc(-c2c(F)cccc2F)nc1C(=O)Nc1cnc2c(c1N1CCC[C@H](N)C1)CCC2=O [Example 20, 5-Amino-N-{4-[(3S)-3-aminopiperidin-1-yl]-7-oxo-6,7-dihydro-5H-cyclopenta[b]pyridin-3-yl}-2-(2,6-difluorophenyl)-1,3-thiazole-4-carboxamide]
[1]
  IC50: ≤ 100 nM
[2]
  IC50: ≤ 100 nM
[3]
  IC50: ≤ 100 nM

## N[C@H]1CCCN(c2c(NC(=O)c3ccc(F)c(-c4c(F)cccc4F)n3)cnc3c2CCC3)C1 [Example 21, N-{4-[(3S)-3-Aminopiperidin-1-yl]-6,7-dihydro-5H-cyclopenta[b]pyridin-3-yl}-6-(2,6-difluorophenyl)-5-fluoropyridine-2-carboxamide]
[1]
  IC50: ≤ 100 nM
[2]
  IC50: ≤ 100 nM
[3]
  IC50: ≤ 100 nM

## C[C@H]1CN(c2c(NC(=O)c3nc(-c4c(F)cccc4F)sc3N)cnc3c2CCC3)C[C@@H](N)[C@@H]1O [Example 28, 5-Amino-N-{4-[(3R,4R,5S)-3-amino-4-hydroxy-5-methylpiperidin-1-yl]-6,7-dihydro-5H-cyclopenta[b]pyridin-3-yl}-2-(2,6-difluorophenyl)-1,3-thiazole-4-carboxamide]
[1]
  IC50: ≤ 100 nM
[2]
  IC50: ≤ 100 nM
[3]
  IC50: ≤ 100 nM

## Nc1sc(-c2c(F)cccc2F)nc1C(=O)Nc1cnc2c(c1N1CCC[C@H](N)C1)CCCN2 [Example 31, 5-Amino-N-{4-[(3S)-3-aminopiperidin-1-yl]-5,6,7,8-tetrahydro-1,8-naphthyridin-3-yl}-2-(2,6-difluorophenyl)-1,3-thiazole-4-carboxamide]
[1]
  IC50: ≤ 100 nM
[2]
  IC50: ≤ 100 nM
[3]
  IC50: ≤ 100 nM

## Nc1cc(F)c(-c2c(F)cccc2F)nc1C(=O)Nc1cnc2c(c1N1CCC[C@H](N)C1)CCCN2 [Example 32, 3-Amino-N-{4-[(3S)-3-aminopiperidin-1-yl]-5,6,7,8-tetrahydro-1,8-naphthyridin-3-yl}-6-(2,6-difluorophenyl)-5-fluoropyridine-2-carboxamide]
[1]
  IC50: ≤ 100 nM
[2]
  IC50: ≤ 100 nM
[3]
  IC50: ≤ 100 nM

## N[C@H]1CCCN(c2c(NC(=O)c3ccc(F)c(-c4c(F)cccc4F)n3)cnc3c2CCCN3)C1 [Example 33, N-{4-[(3S)-3-Aminopiperidin-1-yl]-5,6,7,8-tetrahydro-1,8-naphthyridin-3-yl}-6-(2,6-difluorophenyl)-5-fluoropyridine-2-carboxamide]
[1]
  IC50: ≤ 100 nM
[2]
  IC50: ≤ 100 nM
[3]
  IC50: 100 to 1000 nM

## Nc1sc(-c2c(F)cccc2F)nc1C(=O)Nc1cnc2[nH]ncc2c1N1CCC[C@H](N)C1 [Example 34, 5-Amino-N-{4-[(3S)-3-aminopiperidin-1-yl]-1H-pyrazolo[3,4-b]pyridin-5-yl}-2-(2,6-difluorophenyl)-1,3-thiazole-4-carboxamide]
[1]
  IC50: ≤ 100 nM
[2]
  IC50: ≤ 100 nM
[3]
  IC50: > 2000 nM

## N[C@H]1CCCN(c2c(NC(=O)c3csc(-c4c(F)cccc4F)n3)cnc3[nH]ncc23)C1 [Example 35, N-{4-[(3S)-3-aminopiperidin-1-yl]-1H-pyrazolo[3,4-b]pyridin-5-yl}-2-(2,6-difluorophenyl)-1,3-thiazole-4-carboxamide]
[1]
  IC50: > 40 nM
[2]
  IC50: > 40 nM
[3]
  IC50: > 2000 nM

## C[C@@H]1C[C@H](N)CN(c2c(NC(=O)c3nc(-c4c(F)cccc4F)sc3N)cnc3c2CCO3)C1 [Example 36, 5-Amino-N-{4-[(3S,5R)-3-amino-5-methylpiperidin-1-yl]-2,3-dihydrofuro[2,3-b]pyridin-5-yl}-2-(2,6-difluorophenyl)-1,3-thiazole-4-carboxamide]
[1]
  IC50: ≤ 100 nM
[2]
  IC50: ≤ 100 nM
[3]
  IC50: ≤ 100 nM

## C[C@@H]1C[C@H](N)CN(c2c(NC(=O)c3nc(-c4c(F)cccc4F)c(F)cc3N)cnc3c2CCO3)C1 [Example 38, 3-Amino-N-{4-[(3S,5R)-3-amino-5-methylpiperidin-1-yl]-2,3-dihydrofuro[2,3-b]pyridin-5-yl}-6-(2,6-difluorophenyl)-5-fluoropyridine-2-carboxamide]
[1]
  IC50: ≤ 100 nM
[2]
  IC50: ≤ 100 nM
[3]
  IC50: ≤ 100 nM

## C[C@@H]1C[C@H](N)CN(c2c(NC(=O)c3ccc(F)c(-c4c(F)cccc4F)n3)cnc3c2CCO3)C1 [Example 39, N-{4-[(3S,5R)-3-Amino-5-methylpiperidin-1-yl]-2,3-dihydrofuro[2,3-b]pyridin-5-yl}-6-(2,6-difluorophenyl)-5-fluoropyridine-2-carboxamide]
[1]
  IC50: ≤ 100 nM
[2]
  IC50: ≤ 100 nM
[3]
  IC50: ≤ 100 nM

## C[C@H]1CN(c2c(NC(=O)c3nc(-c4c(F)cccc4F)sc3N)cnc3c2CCO3)C[C@@H](N)[C@@H]1O [Example 40, 5-Amino-N-{4-[(3R,4R,5S)-3-amino-4-hydroxy-5-methylpiperidin-1-yl]-2,3-dihydrofuro[2,3-b]pyridin-5-yl}-2-(2,6-difluorophenyl)-1,3-thiazole-4-carboxamide]
[1]
  IC50: ≤ 100 nM
[2]
  IC50: ≤ 100 nM
[3]
  IC50: ≤ 100 nM

## C[C@H]1CN(c2c(NC(=O)c3ccc(F)c(-c4c(F)cccc4F)n3)cnc3c2CCO3)C[C@@H](N)[C@@H]1O [Example 41, N-{4-[(3R,4R,5S)-3-Amino-4-hydroxy-5-methylpiperidin-1-yl]-2,3-dihydrofuro[2,3-b]pyridin-5-yl}-6-(2,6-difluorophenyl)-5-fluoropyridine-2-carboxamide]
[1]
  IC50: ≤ 100 nM
[2]
  IC50: ≤ 100 nM
[3]
  IC50: ≤ 100 nM

## Nc1sc(-c2c(F)cccc2F)nc1C(=O)Nc1cnc2c(c1N1C[C@@H](N)C[C@@H](C(F)(F)F)C1)CCO2 [Example 42, 5-Amino-N-{4-[(3S,5R)-3-amino-5-(trifluoromethyl)piperidin-1-yl]-2,3-dihydrofuro[2,3-b]pyridin-5-yl}-2-(2,6-difluorophenyl)-1,3-thiazole-4-carboxamide]
[1]
  IC50: ≤ 100 nM
[2]
  IC50: ≤ 100 nM
[3]
  IC50: ≤ 100 nM

## N[C@H]1C[C@@H](C(F)(F)F)CN(c2c(NC(=O)c3ccc(F)c(-c4c(F)cccc4F)n3)cnc3c2CCO3)C1 [Example 43, N-{4-[(3S,5R)-3-amino-5-(trifluoromethyl)piperidin-1-yl]-2,3-dihydrofuro[2,3-b]pyridin-5-yl}-6-(2,6-difluorophenyl)-5-fluoropyridine-2-carboxamide]
[1]
  IC50: ≤ 100 nM
[2]
  IC50: ≤ 100 nM
[3]
  IC50: ≤ 100 nM

## N[C@H]1CCCN(c2c(NC(=O)c3ccc(F)c(-c4c(F)cccc4F)n3)cnc3c2CCC3=O)C1 [Example 50, N-{4-[(3S)-3-Aminopiperidin-1-yl]-7-oxo-6,7-dihydro-5H-cyclopenta[b]pyridin-3-yl}-6-(2,6-difluorophenyl)-5-fluoropyridine-2-carboxamide]
[1]
  IC50: ≤ 100 nM
[2]
  IC50: ≤ 100 nM
[3]
  IC50: 100 to 1000 nM

## C[C@H]1CN(c2c(NC(=O)c3ccc(F)c(-c4c(F)cccc4F)n3)cnc3c2CCC3)C[C@@H](N)[C@@H]1O [Example 52, N-{4-[(3R,4R,5S)-3-Amino-4-hydroxy-5-methylpiperidin-1-yl]-6,7-dihydro-5H-cyclopenta[b]pyridin-3-yl}-6-(2,6-difluorophenyl)-5-fluoropyridine-2-carboxamide]
[1]
  IC50: ≤ 100 nM
[2]
  IC50: ≤ 100 nM
[3]
  IC50: ≤ 100 nM

## CC1(N)CCCN(c2c(NC(=O)c3nc(-c4c(F)cccc4F)sc3N)cnc3c2CCC3)C1 (stereo not drawn) [Example 57, 5-Amino-N-[4-(3-amino-3-methylpiperidin-1-yl)-6,7-dihydro-5H-cyclopenta[b]pyridin-3-yl]-2-(2,6-difluorophenyl)-1,3-thiazole-4-carboxamide]
[1]
  IC50: ≤ 100 nM
[2]
  IC50: ≤ 100 nM
[3]
  IC50: 100 to 1000 nM

## C[C@H]1CN(c2c(NC(=O)c3ccc(F)c(-c4c(F)cc(C(C)(C)O)cc4F)n3)cnc3c2CCO3)C[C@@H](N)[C@@H]1O [Example 65, N-{4-[(3R,4R,5S)-3-Amino-4-hydroxy-5-methylpiperidin-1-yl]-2,3-dihydrofuro[2,3-b]pyridin-5-yl}-6-[2,6-difluoro-4-(1-hydroxy-1-methylethyl)phenyl]-5-fluoropyridine-2-carboxamide]
[1]
  IC50: ≤ 100 nM
[2]
  IC50: ≤ 100 nM
[3]
  IC50: ≤ 100 nM
